Measured values taken from patent US20240239788A1, “SMALL MOLECULE INHIBITORS OF KRAS G12D MUTANT” (Merck Sharp & Dohme LLC, priority 2021, published 2024).
Counter-ions that a name gives are not always drawn. Like-named read-outs stand apart in the source and are kept apart here.

What was measured:
[1] = target: KRAS protein containing G12D mutation (Homo sapiens (Human), UniProt P01116, G12D); assay: SOS-catalyzed nucleotide exchange assay (GNE), TR-FRET; assay type: biochemical; conditions: biotinylated KRAS G12D, SOS and GTP, 60-minute incubation
Procedure: Compounds are added to this complex and then after a 60-minute incubation time the mixture is treated with SOS and unlabeled GTP. Small molecule inhibitors stabilize the Bodipy-GDP complex whereas the untreated protein rapidly exchanges Bodipy-GDP for unlabeled GTP resulting in reduced TR-FRET signal.
This solution is referred to as biotinylated KRAS G12D stock solution.

[2] = test system: AsPC-1 cells containing homozygous KRAS-G12D activating mutation; assay: Cellular phospho-ERK assay with 10% FBS (Examples 107a-256); assay type: cell-based
Procedure: 5% CO2 for 2 hours. […] Assay plates were read on a EnVision Multimode Plate Reader (PerkinElmer) and the ratio of p-Erk vs total Erk in each well was used as the final readout.

[3] = Homo sapiens, ASPC1, 2 h, read-out: IC50 (nM) pERK (cell with FBS 10%), AsPC-1 cells, 10% fetal bovine serum, 2 hours, ratio of p-Erk vs total Erk
[4] = read-out: IC50 (nM) pERK (cell with FBS 10%), AsPC-1 cells, 10% fetal bovine serum, 2 hours, ratio of p-Erk vs total Erk

KRAS protein containing G12D mutation, sequence (P01116 other isoform, or with tags, fused parts or gaps G12D (already in the parent)): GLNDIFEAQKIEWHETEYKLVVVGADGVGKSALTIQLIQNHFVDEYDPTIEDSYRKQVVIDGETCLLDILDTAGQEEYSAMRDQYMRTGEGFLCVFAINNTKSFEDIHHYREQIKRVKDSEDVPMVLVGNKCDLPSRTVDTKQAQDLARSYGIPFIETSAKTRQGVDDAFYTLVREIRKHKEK

| SMILES | IC50 [1] | IC50 [2, 3] | IC50 [2, 4] |
| --- | --- | --- | --- |
| Cc1nc(N)nc(-c2c(F)cc3c(N4C[C@H]5CC[C@@H](C4)N5)nc(OC[C@@]45CCCN4C[C@H](F)C5)nc3c2F)c1C(F)(F)F [Ex. 135, 4-(4-((1R,5S)-3,8-diazabicyclo[3.2.1]octan-3-yl)-6,8-difluoro-2-(((2R,7aS)-2-fluorotetrahydro-1H-pyrrolizin-7a(5H)-yl)methoxy)quinazolin-7-yl)-6-methyl-5-(trifluoromethyl)pyrimidin-2-amine] | 54.6 nM | 469 nM | – |
| C#Cc1c(F)ccc2cc(O)cc(-c3c(F)cc4c(N5CC6CC[C@@](C)(C5)N6)nc(OC[C@@]56CCCN5C[C@H](F)C6)nc4c3F)c12 (single isomer, unassigned) [Ex. 177b] | 51.7 nM | – | 588 nM |
| Oc1cc(Cl)c(C(F)(F)F)cc1-c1c(F)cc2c(N3CC4CCC(C3)N4)nc(OC[C@@]34CCCN3C[C@H](F)C4)nc2c1F (single isomer, unassigned) [Ex. 256] | 246 nM | 5870 nM | – |
| C[C@@]12CC[C@H](CN(c3nc(OC[C@@]45CCCN4C[C@H](F)C5)nc4c(F)c(-c5cc(O)cc6cccc(F)c56)c(F)cc34)C1)N2 (single isomer, unassigned) [Ex. 186a] | 1.49 nM | – | 180 nM |
| C#Cc1c(F)ccc2cccc(-c3c(F)cc4c(N5CC6CC[C@@](C)(C5)N6)nc(OCC56CCCN5C(COC(=O)N(C)C)CC6)nc4c3F)c12 (single isomer, unassigned) [242a] | 1.15 nM | – | 135 nM |
| C[C@]12CCC(CN(c3nc(OC[C@]4(CN[C@H]5C[C@@H](O)C5)CC4(F)F)nc4c(F)c(-c5cc(O)cc6cccc(Cl)c56)c(F)cc34)C1)N2 (single isomer, unassigned) [Ex. 216b] | 804 nM | – | 7120 nM |
| C#Cc1cccc2cc(O)c(F)c(-c3c(F)cc4c(N5CC6CC[C@@](C)(C5)N6)nc(OC[C@@]56CCCN5C[C@H](F)C6)nc4c3F)c12 (single isomer, unassigned) [Ex. 192b] | 37 nM | – | 1570 nM |
| C[C@]12CC[C@H](CN(c3nc(OC[C@H]4CCNC4)nc4c(F)c(-c5cc(O)cc6ccccc56)c(Cl)cc34)C1)N2 [Example 119, 4-(6-chloro-8-fluoro-4-((1S,5R)-1-methyl-3,8-diazabicyclo[3.2.1]octan-3-yl)-2-(((S)-pyrrolidin-3-yl)methoxy)quinazolin-7-yl)naphthalen-2-ol, TFA] | 1440 nM | 30000 nM | – |
| C[C@]12CCC(CN(c3nc(OC[C@@]45CCCN4C[C@H](F)C5)nc4c(F)c(-c5cc(O)cc(Cl)c5C(F)(F)F)c(F)cc34)C1)N2 (single isomer, unassigned) [Ex. 183a] | 347 nM | – | 6070 nM |
| C[C@]12CC[C@H](CN(c3nc(OC[C@@]45CCCN4C[C@H](F)C5)nc4c(F)c(-c5cc(O)cc6cccc(C7CC7)c56)c(F)cc34)C1)N2 [Ex. 159, 5-cyclopropyl-4-(6,8-difluoro-2-(((2R)-2-fluorotetrahydro-1H-pyrrolizin-7a(5H)-yl)-methoxy)-4-((1S,5R)-1-methyl-3,8-diaza-bicyclo[3.2.1]octan-3-yl)quinazolin-7-yl)-naphthalen-2-ol] | 4.28 nM | 139 nM | – |
| C[C@]12CC[C@H](CN(c3nc(OC[C@@H]4CC[C@]5(CO)CCCN45)nc4c(F)c(-c5cc(O)cc6cccc(Cl)c56)c(F)cc34)C1)N2 [Ex. 243b, 5-chloro-4-(6,8-difluoro-2-(((3S,7aS)-7a-(hydroxymethyl)hexahydro-1H-pyrrolizin-3-yl)methoxy)-4-((1S,5R)-1-methyl-3,8-diazabicyclo[3.2.1]octan-3-yl)quinazolin-7-yl)naphthalen-2-ol] | 23.1 nM | 20500 nM | – |
| C#Cc1csc2ccnc(-c3c(F)cc4c(N5C[C@H]6CC[C@@H](C5)N6)nc(OC[C@@]56CCCN5C[C@H](F)C6)nc4c3F)c12 [Ex. 152, 4-(4-((1R,5S)-3,8-diazabicyclo[3.2.1]octan-3-yl)-6,8-difluoro-2-(((2R,7aS)-2-fluorotetrahydro-1H-pyrrolizin-7a(5H)-yl)-methoxy)quinazolin-7-yl)-3-ethynylthieno[3,2-c]pyridine] | 848 nM | 5190 nM | – |
| C[C@]12CCC(CN(c3nc(OC[C@]4(CN[C@@H]5CC[C@H](O)C5)CC4(F)F)nc4c(F)c(-c5cc(O)cc6cccc(Cl)c56)c(F)cc34)C1)N2 (single isomer, unassigned) [Ex. 219b] | 627 nM | – | 9380 nM |
| CCC(=O)Oc1cc(-c2c(F)cc3c(N4CC5CC[C@@](C)(C4)N5)nc(OC[C@@]45CCCN4C[C@H](F)C5)nc3c2F)c2c(Cl)cccc2c1 (single isomer, unassigned) [Ex. 162a] | 23.1 nM | – | 659 nM |
| C[C@]12CCC(CN(c3nc(OC[C@@]45CCCN4C[C@H](F)C5)nc4c(F)c(-c5cc(O)cc(Cl)c5C(F)(F)F)c(F)cc34)C1)N2 (single isomer, unassigned) [Ex. 183b] | 3.95 nM | – | 190 nM |
| CCc1cccc2cccc(-c3c(F)cc4c(N5C[C@H]6CC[C@@](C)(C5)N6)nc(OC[C@@]56CCCN5C[C@H](F)C6)nc4c3F)c12 [Ex. 141, 7-(8-ethylnaphthalen-1-yl)-6,8-difluoro-2-(((2R,7aS)-2-fluorotetrahydro-1H-pyrrolizin-7a(5H)-yl)methoxy)-4-((1S,5R)-1-methyl-3,8-diazabicyclo[3.2.1]octan-3-yl)-quinazoline, TFA] | 139 nM | 16400 nM | – |
| C#Cc1c(F)ccc2cc(O)cc(-c3c(F)cc4c(N5CC6CC[C@@](C)(C5)N6)nc(OC[C@@]56CCCN5C[C@H](F)C6)nc4c3F)c12 (single isomer, unassigned) [Ex. 177a] | 0.8 nM | – | 12.7 nM |
| CO[C@@H]1CCN(C[C@@]2(COc3nc(N4CC5CC[C@@](C)(C4)N5)c4cc(F)c(-c5cc(O)cc6cccc(Cl)c56)c(F)c4n3)CC2(F)F)C1 (single isomer, unassigned) [Ex. 215b] | 429 nM | – | 2370 nM |
| C[C@]12CC[C@H](CN(c3nc(OC[C@@]45CCCN4C[C@H](F)C5)nc4c(F)c(-c5nc(N)nc6cccc(Cl)c56)c(F)cc34)C1)N2 [Ex. 188, 5-chloro-6′,8′-difluoro-2′-(((2R,7aS)-2-fluoro-tetrahydro-1H-pyrrol-izin-7a(5H)-yl)meth-oxy)-4'-((1S,5R)-1-methyl-3,8-diaza-bicyclo[3.2.1]octan-3-yl)-[4,7′-biquinazolin]-2-amine] | 3400 nM | 30000 nM | – |
| CN(C[C@@]1(COc2nc(N3CC4CC[C@@](C)(C3)N4)c3cc(F)c(-c4cc(O)cc5cccc(Cl)c45)c(F)c3n2)CC1(F)F)C1COC1 (single isomer, unassigned) [Ex. 220] | 470 nM | 7830 nM | – |
| CN1CCC[C@H]1COc1nc(N2CC3CC[C@@](C)(C2)N3)c2cc(F)c(-c3cc(O)cc4ccccc34)c(F)c2n1 [Example 118, 4-(6,8-difluoro-4-((1S,5R)-1-methyl-3,8-diazabicyclo [3.2.1]octan-3-yl)-2-(((S)-1-ethylpyrrolidin-2-yl)methoxy)quinazolin-7-l)naphthalen-2-ol] | 82.6 nM | 1810 nM | – |
| Cc1nc(N)c(F)c(-c2c(F)cc3c(N4CC5CCC(C4)N5)nc(OC[C@@]45CCCN4C[C@H](F)C5)nc3c2F)c1C(F)(F)F (single isomer, unassigned) [Ex. 151a] | 1930 nM | – | 3950 nM |
| Nc1cc2cccc(Cl)c2c(-c2c(F)cc3c(N4C[C@H]5CC[C@@H](C4)N5)nc(OC[C@@]45CCCN4C[C@H](F)C5)nc3c2F)n1 [Ex. 132, 1-(4-((1R,5S)-3,8-diazabicyclo[3.2.1]octan-3-yl)-6,8-difluoro-2-(((2R,7aS)-2-fluorotetrahydro-1H-pyrrolizin-7a(5H)-yl)methoxy)quinazolin-7-yl)-8-chloroisoquinolin-3-amine] | 347 nM | 5580 nM | – |
| Cc1cc(N)nc(-c2c(F)cc3c(N4CC5CC[C@@](C)(C4)N5)nc(OC[C@@]45CCCN4C[C@H](F)C5)nc3c2F)c1C(F)(F)F (single isomer, unassigned) [Ex. 200a] | 72.9 nM | 1220 nM | – |
| Cc1c(F)c(N)nc(-c2c(Cl)cc3c(N4C[C@H]5CC[C@@H](C4)N5)nc(OC[C@@]45CCCN4C[C@H](F)C5)nc3c2F)c1C(F)(F)F [Ex. 236] | 3.11 nM | – | 68.7 nM |
| C[C@]12CCC(CN(c3nc(OCC45CCCN4CC(C(F)F)C5)nc4c(F)c(-c5cc(O)cc6cccc(Cl)c56)c(F)cc34)C1)N2 (single isomer, unassigned) [Ex. 173-2a] | 266 nM | – | 10200 nM |
| Cc1nc(N)c(C)c(-c2c(F)cc3c(N4CC5CCC(C4)N5)nc(OC[C@@]45CCCN4C[C@H](F)C5)nc3c2F)c1C(F)(F)F (single isomer, unassigned) [Ex. 191b] | 2840 nM | – | 30000 nM |
| C#Cc1cccc2scc(-c3c(F)cc4c(N5CC6CC[C@@](C)(C5)N6)nc(OCC5(CN6CCOCC6)CC5)nc4c3F)c12 (single isomer, unassigned) [Ex. 147b] | 429 nM | – | 10200 nM |
| Cc1n[nH]c2ncc(C(F)(F)F)c(-c3c(F)cc4c(N5C[C@H]6CC[C@@H](C5)N6)nc(OC[C@@]56CCCN5C[C@H](F)C6)nc4c3F)c12 [Ex. 234, 4-((1R,5S)-3,8-diazabicyclo[3.2.1]octan-3-yl)-6,8-difluoro-2-(((2R,7aS)-2-fluorotetrahydro-1H-pyrrolizin-7a(5H)-yl)methoxy)-7-(3-methyl-5-(trifluoromethyl)-1H-pyrazolo[3.4-b]pyridin-4-yl)quinazoline] | 64 nM | – | 785 nM |
